Source: US12162858B2, “Quinoline derivatives as inhibitors of AXL/MER RTK and CSF1R” (QURIENT CO., LTD., priority 2018, dated 2024)

Key:
Axl = biological target: T1, Axl (Homo sapiens, UniProt P30530); assay: LanthaScreen Eu kinase binding assay for Axl; conditions: read-out: Axl kinase binding activity (Kd)
T1 sequence (P30530 26-894): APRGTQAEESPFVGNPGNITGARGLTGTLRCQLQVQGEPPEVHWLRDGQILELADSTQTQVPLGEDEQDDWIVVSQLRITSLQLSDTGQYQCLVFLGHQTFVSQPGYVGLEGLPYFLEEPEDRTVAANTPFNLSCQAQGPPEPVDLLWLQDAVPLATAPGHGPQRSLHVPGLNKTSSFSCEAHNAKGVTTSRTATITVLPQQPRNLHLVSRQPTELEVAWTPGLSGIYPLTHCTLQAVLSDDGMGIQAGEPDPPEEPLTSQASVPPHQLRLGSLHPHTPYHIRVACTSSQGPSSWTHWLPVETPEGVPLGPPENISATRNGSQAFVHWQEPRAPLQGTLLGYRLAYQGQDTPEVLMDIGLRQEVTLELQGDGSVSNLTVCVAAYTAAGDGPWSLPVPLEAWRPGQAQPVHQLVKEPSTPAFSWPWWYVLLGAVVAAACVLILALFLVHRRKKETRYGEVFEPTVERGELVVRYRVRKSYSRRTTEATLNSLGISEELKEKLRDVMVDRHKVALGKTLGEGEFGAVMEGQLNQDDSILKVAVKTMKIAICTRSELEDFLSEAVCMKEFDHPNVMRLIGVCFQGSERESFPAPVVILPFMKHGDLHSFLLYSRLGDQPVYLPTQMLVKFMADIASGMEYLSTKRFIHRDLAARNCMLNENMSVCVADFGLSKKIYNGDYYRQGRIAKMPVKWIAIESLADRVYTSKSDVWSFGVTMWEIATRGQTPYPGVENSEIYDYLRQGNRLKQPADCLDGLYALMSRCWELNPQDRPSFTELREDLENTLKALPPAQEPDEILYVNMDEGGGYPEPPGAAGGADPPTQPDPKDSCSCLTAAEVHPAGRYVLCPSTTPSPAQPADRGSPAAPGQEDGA
In short: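 Kd values come from control-normalized FRET loss, referenced to DMSO vehicle wells, after 1 h at room temperature. Each compound was serially diluted over eight steps in DMSO and competed against Tracer 236 (Alexa Fluor 647) for the kinase, which was tagged by a Eu anti-GST antibody.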

Axl (Ba/F3 cells) = biological target: T2, Axl (Ba/F3 cells) (Homo sapiens, UniProt P30530); assay: BaF3 viability assay, Axl-dependent cells; format: cell-based; conditions: read-out: Cellular Axl activity by Ba/F3 assay (IC50)
T2 sequence (P30530 1-894): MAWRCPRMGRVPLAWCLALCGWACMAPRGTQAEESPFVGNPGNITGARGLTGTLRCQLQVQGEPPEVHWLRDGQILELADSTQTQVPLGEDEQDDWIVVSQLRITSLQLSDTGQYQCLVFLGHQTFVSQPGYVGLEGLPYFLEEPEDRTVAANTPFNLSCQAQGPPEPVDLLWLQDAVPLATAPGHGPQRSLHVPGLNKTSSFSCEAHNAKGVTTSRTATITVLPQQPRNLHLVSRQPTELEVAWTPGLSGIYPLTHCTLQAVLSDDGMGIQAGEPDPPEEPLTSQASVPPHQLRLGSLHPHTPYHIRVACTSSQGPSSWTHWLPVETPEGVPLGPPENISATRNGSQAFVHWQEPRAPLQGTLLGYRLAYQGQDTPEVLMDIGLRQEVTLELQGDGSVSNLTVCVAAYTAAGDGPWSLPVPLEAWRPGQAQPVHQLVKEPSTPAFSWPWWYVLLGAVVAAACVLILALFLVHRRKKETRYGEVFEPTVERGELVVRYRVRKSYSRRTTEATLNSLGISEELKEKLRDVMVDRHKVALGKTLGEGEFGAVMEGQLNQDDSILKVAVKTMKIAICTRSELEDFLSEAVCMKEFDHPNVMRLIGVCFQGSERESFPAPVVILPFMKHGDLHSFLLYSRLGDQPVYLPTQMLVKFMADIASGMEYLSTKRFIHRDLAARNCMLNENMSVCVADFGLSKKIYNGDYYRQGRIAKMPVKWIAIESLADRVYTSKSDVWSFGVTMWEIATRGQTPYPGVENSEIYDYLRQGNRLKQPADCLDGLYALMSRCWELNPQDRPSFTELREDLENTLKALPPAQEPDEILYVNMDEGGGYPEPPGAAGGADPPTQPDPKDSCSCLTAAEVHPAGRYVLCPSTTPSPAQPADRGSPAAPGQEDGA
Source text: (§1) In this system, IL-3-dependent Ba/F3 cells are modified to express an activated recombinant kinase (in the present case Axl, Mer and CSF1R). Following removal of IL-3, the modified cells are dependent on the activity of the recombinant kinase for survival and proliferation. Inhibition of such kinase(s) through test compounds reduces survival and proliferation of the cells.
(§2) Cell lines were maintained in growth media (GM) consisting of RPMI 1640 supplemented with 10% FBS. Cells in logarithmic-phase growth were harvested and 5,000 cells were distributed into each well of a 384-well plate in 50 μl GM. Parental cells (or experimental assays where specified) were further supplemented with 2 ng/ml IL-3 to support cell growth and survival. Fifty nanoliters of the indicated reference standard or experimental compound were added to appropriate wells (in duplicate) and the cells were cultured for 48 h at 37° C./5% CO2. Viability was determined by adding 10 μl Cell Titer Glo and measuring luminescence, which is reported as relative light units (RLU) measured in counts per second. The following calculations and formulas are used for data analysis using GraphPad Prism software: The curve fitting was made using the Dose response curves-Inhibition.

CSF1R (Ba/F3 cells) = CSF1R (Ba/F3 cells) (Homo sapiens, UniProt P07333); assay: BaF3 viability assay, CSF1R-dependent cells; format: cell-based; conditions: read-out: Cellular CSF1R activity by Ba/F3 assay (IC50)
CSF1R (Ba/F3 cells), sequence (P07333 whole entry, change not shown): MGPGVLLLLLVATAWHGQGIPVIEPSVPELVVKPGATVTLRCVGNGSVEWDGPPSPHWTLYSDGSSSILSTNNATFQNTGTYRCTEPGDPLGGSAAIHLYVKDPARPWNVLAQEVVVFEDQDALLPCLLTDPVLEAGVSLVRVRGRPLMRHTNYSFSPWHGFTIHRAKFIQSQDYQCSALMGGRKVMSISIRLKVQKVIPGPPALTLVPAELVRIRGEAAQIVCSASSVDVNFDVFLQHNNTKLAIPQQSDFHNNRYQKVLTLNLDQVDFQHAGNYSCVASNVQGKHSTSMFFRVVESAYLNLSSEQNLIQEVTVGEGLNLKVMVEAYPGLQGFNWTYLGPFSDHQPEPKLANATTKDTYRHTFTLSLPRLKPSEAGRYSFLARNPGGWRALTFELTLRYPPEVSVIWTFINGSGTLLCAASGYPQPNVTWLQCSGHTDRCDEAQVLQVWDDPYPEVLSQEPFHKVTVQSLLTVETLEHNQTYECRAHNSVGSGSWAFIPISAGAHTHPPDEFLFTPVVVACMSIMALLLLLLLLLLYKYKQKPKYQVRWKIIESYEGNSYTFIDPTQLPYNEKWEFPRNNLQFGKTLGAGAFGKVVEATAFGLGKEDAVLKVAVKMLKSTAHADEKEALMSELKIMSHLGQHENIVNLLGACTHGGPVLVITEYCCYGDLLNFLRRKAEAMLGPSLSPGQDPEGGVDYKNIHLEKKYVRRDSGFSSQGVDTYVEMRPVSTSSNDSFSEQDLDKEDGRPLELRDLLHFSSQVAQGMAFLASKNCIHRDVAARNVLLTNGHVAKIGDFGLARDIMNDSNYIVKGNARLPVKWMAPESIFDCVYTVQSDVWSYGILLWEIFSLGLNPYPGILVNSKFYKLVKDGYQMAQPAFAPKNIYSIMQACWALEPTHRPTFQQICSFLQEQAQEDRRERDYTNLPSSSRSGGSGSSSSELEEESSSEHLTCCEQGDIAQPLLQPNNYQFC
Source text: as §1, §2

Row | Structure (SMILES) | Kd (Axl) [nM] | GI50 (Axl (Ba/F3 cells)) [nM] | GI50 (CSF1R (Ba/F3 cells)) [nM]
1 | CCCn1cc(OC(C)C)c(C(=O)Nc2ccc(Oc3ccnc4cc(OC)c(OC(F)(F)F)cc34)c(F)c2)n1 [Compound 35] | ≥ 500 | ≥ 10000 | 1000 to 10000
2 | COc1cc2nccc(Oc3ccc(NC(=O)c4sc(C5CC5)cc4OCC(F)(F)F)nc3)c2cc1OC [Compound 179] | 100 to 500 |  | 
3 | COc1cc2nccc(Oc3ccc(NC(=O)c4nn(CC(C)C)cc4OCC(F)(F)F)c(F)c3)c2cc1OC [Compound 48] | < 100 |  | 
4 | COc1cc2nccc(Oc3ccc(NC(=O)c4nn(CCC(F)(F)F)cc4OCC4CCC4)nc3)c2cc1OC [Compound 166] | < 100 |  | 
5 | COc1cc2nccc(Oc3ccc(NC(=O)c4nc(CCC(F)(F)F)oc4CCC4CCC4)nc3)c2cc1OC [Compound 176] | 100 to 500 |  | 
6 | COc1cc2nccc(Oc3ccc(NC(=O)c4nn(C)cc4OCC(F)(F)F)nc3)c2cc1OC [Compound 33] | < 100 |  | 
7 | COc1cc2nccc(Oc3ccc(NC(=O)c4nn(CC(C)O)cc4OCC(F)F)nc3)c2cc1OC (stereo not drawn) [Compound 175] | < 100 |  | 
8 | CCCn1cc(OCCF)c(C(=O)Nc2ccc(Oc3ccnc4cc(OC)c(OC)cc34)cn2)n1 [Compound 14] | < 100 |  | 
9 | COc1cc2nccc(Oc3ccc(NC(=O)c4nn(C5CCC5)cc4OCC(F)(F)F)nc3)c2cc1OC [Compound 24] | < 100 |  | 
10 | COCCn1cc(OCC(F)(F)F)c(C(=O)Nc2ccc(Oc3ccnc4cc(OC)c(OC)cc34)c(F)c2)n1 [Compound 54] | < 100 |  | 
11 | COc1cc2nccc(Oc3ccc(NC(=O)c4nn(CCC#N)cc4OCC(F)(F)F)nc3)c2cc1OC [Compound 39] | < 100 |  | 
12 | CCCn1cc(OCCC(F)(F)F)c(C(=O)Nc2ccc(Oc3ccnc4cc(OC)c(OC)cc34)cn2)n1 [Compound 31] | < 100 |  | 
13 | COc1cc2nccc(Oc3ccc(NC(=O)c4nn(CC5CCN(C)C5)cc4OCC(F)(F)F)nc3)c2cc1OC (stereo not drawn) [Compound 169] | < 100 |  | 
14 | CCC(=O)n1cc(OCC(F)(F)F)c(C(=O)Nc2ccc(Oc3ccnc4cc(OC)c(OC)cc34)cn2)n1 [Compound 20] | < 100 |  | 
15 | COc1cc2nccc(Oc3ccc(NC(=O)c4nn(CC(C)N)cc4OCC(F)(F)F)nc3)c2cc1OC (stereo not drawn) [Compound 63] | < 100 |  | 

Further lines, with some results ahead:

Row | Kd (Axl) [nM] | Structure (SMILES) | GI50 (Axl (Ba/F3 cells)) [nM] | GI50 (CSF1R (Ba/F3 cells)) [nM]
16 | < 100 | CCCn1cc(OCCC(O)CO)c(C(=O)Nc2ccc(Oc3ccnc4cc(OC)c(OC)cc34)cn2)n1 (stereo not drawn) [Compound 15] | < 1000 | 1000 to 10000
17 | < 100 | COc1cc2nccc(Oc3ccc(NC(=O)c4nn(CC(C)O)cc4OCC(F)(F)F)nc3)c2cc1OC (stereo not drawn) [Compound 17] | < 1000 | < 1000
18 | < 100 | COc1cc2nccc(Oc3ccc(NC(=O)c4nn(C[C@@H](C)O)cc4OCC(F)(F)F)nc3)c2cc1OC [Compound 29] | < 1000 | < 1000
19 | < 100 | COc1cc2nccc(Oc3ccc(NC(=O)c4nn(CCCO)cc4OCC(F)(F)F)nc3)c2cc1OC [Compound 18] | < 1000 | < 1000
20 | < 100 | COc1cc2nccc(Oc3ccc(NC(=O)c4nn(C5CCNC5)cc4OCC(F)(F)F)nc3)c2cc1OC (stereo not drawn) [Compound 70] |  | 
21 | < 100 | COc1cc2nccc(Oc3ccc(NC(=O)c4nn(C5CCCC5)cc4OCC(F)(F)F)cc3C)c2cc1OC [Compound 57] |  | 
22 | < 100 | COc1cc2nccc(Oc3ccc(NC(=O)c4nn(C5CCOC5)cc4OCC(F)(F)F)nc3)c2cc1OC (stereo not drawn) [Compound 13] |  | 
23 | < 100 | COc1cc2nccc(Oc3ccc(NC(=O)c4nn(CC5CCNC5)cc4OCC(F)(F)F)nc3)c2cc1OC (stereo not drawn) [Compound 72] |  | 
24 | < 100 | COc1cc2nccc(Oc3ccc(NC(=O)c4nn(C[C@H](C)O)cc4OCC(F)(F)F)nc3)c2cc1OC [Compound 30] | < 1000 | < 1000
25 | < 100 | COc1cc2nccc(Oc3ccc(NC(=O)c4nn(CC(C)O)cc4OCC(F)(F)F)c(F)c3)c2cc1OC (stereo not drawn) [Compound 76] |  | 
26 | < 100 | COc1cc2nccc(Oc3ccc(NC(=O)c4nn(C5CCOC5)cc4OCC(F)(F)F)cc3F)c2cc1OC (stereo not drawn) [Compound 55] |  | 
27 | < 100 | COc1cc2nccc(Oc3ccc(NC(=O)c4nn(C5COC5)cc4OCC(F)(F)F)nc3)c2cc1OC [Compound 66] |  | 
